Calls of active or inactive are those of the source.
Legend:
[1] = target: T1, Acyl-homoserine lactone acylase PvdQ (Pseudomonas aeruginosa (strain LESB58), UniProt Q9I194); assay: PvdQ acylase enzyme activity blockers – biochemical, fluorescence, plate reader and imaging, cherry-picks, dose response (AID 493231)
T1 sequence (Q9I194 whole entry): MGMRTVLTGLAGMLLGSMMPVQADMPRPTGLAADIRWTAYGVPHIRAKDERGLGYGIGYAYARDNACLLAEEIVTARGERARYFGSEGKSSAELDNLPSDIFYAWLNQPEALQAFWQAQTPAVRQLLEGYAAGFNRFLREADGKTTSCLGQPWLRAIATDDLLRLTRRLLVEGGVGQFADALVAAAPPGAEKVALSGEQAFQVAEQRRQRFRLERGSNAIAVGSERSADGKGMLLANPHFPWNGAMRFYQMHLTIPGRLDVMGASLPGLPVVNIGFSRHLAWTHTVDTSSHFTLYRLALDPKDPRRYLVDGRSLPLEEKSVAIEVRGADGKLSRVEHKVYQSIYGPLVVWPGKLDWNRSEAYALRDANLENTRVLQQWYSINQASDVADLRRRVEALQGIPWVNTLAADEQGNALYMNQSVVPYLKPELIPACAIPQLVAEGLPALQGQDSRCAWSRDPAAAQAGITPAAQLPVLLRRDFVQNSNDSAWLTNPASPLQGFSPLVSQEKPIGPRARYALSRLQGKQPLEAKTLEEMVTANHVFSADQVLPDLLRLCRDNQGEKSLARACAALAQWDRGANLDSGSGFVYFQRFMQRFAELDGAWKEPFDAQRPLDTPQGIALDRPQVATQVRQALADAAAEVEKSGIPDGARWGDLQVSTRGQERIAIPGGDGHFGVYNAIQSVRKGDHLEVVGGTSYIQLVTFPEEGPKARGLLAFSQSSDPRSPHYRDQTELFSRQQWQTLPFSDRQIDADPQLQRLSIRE

HeLa = assay: toxicity to human HeLa cells – cell-based, 48 h, plate reader, cherry-picks, cytotoxicity control, dose response (AID 504942); type: functional
[2] = target: T2, DNA dC->dU-editing enzyme APOBEC-3A (Homo sapiens, UniProt P31941); assay: Dose Response confirmation of small molecule APOBEC3A DNA Deaminase Inhibitors via a fluorescence-based single-stranded DNA deaminase assay. [Related pubchem assays (depositor defined):AID493011, AID493024]; type: functional
T2 sequence (P31941 whole entry): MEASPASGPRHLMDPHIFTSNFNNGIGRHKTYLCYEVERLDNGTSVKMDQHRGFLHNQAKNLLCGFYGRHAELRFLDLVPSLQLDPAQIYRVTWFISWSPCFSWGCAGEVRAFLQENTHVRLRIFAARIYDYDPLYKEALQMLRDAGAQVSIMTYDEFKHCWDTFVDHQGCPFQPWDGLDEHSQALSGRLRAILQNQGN

[3] = target: T3, DNA dC->dU-editing enzyme APOBEC-3G (Homo sapiens, UniProt Q9HC16); type: functional
T3 sequence (Q9HC16 whole entry): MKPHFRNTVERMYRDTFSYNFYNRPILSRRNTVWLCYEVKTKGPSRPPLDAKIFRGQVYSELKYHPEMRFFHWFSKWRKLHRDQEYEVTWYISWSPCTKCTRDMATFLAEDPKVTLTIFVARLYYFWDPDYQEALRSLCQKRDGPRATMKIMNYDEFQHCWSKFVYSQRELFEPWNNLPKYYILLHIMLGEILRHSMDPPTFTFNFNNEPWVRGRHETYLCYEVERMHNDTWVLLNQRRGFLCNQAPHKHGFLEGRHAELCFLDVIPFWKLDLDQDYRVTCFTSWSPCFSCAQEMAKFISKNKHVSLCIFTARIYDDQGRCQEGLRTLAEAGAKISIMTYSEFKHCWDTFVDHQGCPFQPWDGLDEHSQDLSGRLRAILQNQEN

[4] = target: T2, DNA dC->dU-editing enzyme APOBEC-3A; assay: SAR analysis of small molecule inhibitors of APOBEC3A DNA Deaminase via a fluorescence-based single-stranded DNA deaminase assay - Set 2.; type: functional; conditions: read-out: IC50_Mean
[5] = target: T3, DNA dC->dU-editing enzyme APOBEC-3G; assay: SAR analysis of small molecule inhibitors of APOBEC3G DNA Deaminase via a fluorescence-based single-stranded DNA deaminase assay - Set 2.; type: functional; conditions: read-out: IC50_Mean
[6] = target: T3, DNA dC->dU-editing enzyme APOBEC-3G; assay: inhibition of APOBEC3G ssDNA deamination – biochemical, fluorescence, single-stranded DNA substrate, SAR follow-up (AID 602136); type: functional; conditions: read-out: IC50_Mean
[7] = target: T2, DNA dC->dU-editing enzyme APOBEC-3A; assay: SAR analysis of small molecule inhibitors of APOBEC3A DNA Deaminase via a fluorescence-based single-stranded DNA deaminase assay.; type: functional; conditions: read-out: IC50_Mean
[8] = target: Latent membrane protein 1 (Human herpesvirus 4 (strain B95-8), UniProt P03230); assay: LMP1 TES1 pathway selectivity over dsRED control – imaging, HEK293T, dual-color eGFP/dsRED, cherry-picks, selectivity assay for LMP1 NF-kB inhibitor project, dose response (AID 588398); type: functional, cell-based
Latent membrane protein 1, sequence (P03230 whole entry): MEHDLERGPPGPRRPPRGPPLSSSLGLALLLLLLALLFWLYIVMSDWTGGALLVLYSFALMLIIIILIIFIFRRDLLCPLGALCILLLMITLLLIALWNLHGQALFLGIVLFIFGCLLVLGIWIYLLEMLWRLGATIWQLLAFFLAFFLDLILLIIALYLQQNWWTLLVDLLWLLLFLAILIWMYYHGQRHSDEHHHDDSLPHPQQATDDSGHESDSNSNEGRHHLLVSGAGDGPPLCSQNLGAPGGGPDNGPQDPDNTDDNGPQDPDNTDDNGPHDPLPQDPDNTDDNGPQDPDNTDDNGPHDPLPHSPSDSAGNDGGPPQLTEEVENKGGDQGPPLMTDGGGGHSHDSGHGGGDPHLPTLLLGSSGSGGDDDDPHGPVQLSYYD

[9] = target: Multidrug resistance protein CDR1 (Candida albicans, UniProt P43071); assay: inhibition of Nile Red efflux via Candida CDR1 – S. cerevisiae AD1-8u, singleplex, Cherry Pick1 hits, dose response (AID 588606); type: functional
Multidrug resistance protein CDR1, sequence (P43071 whole entry, looked up): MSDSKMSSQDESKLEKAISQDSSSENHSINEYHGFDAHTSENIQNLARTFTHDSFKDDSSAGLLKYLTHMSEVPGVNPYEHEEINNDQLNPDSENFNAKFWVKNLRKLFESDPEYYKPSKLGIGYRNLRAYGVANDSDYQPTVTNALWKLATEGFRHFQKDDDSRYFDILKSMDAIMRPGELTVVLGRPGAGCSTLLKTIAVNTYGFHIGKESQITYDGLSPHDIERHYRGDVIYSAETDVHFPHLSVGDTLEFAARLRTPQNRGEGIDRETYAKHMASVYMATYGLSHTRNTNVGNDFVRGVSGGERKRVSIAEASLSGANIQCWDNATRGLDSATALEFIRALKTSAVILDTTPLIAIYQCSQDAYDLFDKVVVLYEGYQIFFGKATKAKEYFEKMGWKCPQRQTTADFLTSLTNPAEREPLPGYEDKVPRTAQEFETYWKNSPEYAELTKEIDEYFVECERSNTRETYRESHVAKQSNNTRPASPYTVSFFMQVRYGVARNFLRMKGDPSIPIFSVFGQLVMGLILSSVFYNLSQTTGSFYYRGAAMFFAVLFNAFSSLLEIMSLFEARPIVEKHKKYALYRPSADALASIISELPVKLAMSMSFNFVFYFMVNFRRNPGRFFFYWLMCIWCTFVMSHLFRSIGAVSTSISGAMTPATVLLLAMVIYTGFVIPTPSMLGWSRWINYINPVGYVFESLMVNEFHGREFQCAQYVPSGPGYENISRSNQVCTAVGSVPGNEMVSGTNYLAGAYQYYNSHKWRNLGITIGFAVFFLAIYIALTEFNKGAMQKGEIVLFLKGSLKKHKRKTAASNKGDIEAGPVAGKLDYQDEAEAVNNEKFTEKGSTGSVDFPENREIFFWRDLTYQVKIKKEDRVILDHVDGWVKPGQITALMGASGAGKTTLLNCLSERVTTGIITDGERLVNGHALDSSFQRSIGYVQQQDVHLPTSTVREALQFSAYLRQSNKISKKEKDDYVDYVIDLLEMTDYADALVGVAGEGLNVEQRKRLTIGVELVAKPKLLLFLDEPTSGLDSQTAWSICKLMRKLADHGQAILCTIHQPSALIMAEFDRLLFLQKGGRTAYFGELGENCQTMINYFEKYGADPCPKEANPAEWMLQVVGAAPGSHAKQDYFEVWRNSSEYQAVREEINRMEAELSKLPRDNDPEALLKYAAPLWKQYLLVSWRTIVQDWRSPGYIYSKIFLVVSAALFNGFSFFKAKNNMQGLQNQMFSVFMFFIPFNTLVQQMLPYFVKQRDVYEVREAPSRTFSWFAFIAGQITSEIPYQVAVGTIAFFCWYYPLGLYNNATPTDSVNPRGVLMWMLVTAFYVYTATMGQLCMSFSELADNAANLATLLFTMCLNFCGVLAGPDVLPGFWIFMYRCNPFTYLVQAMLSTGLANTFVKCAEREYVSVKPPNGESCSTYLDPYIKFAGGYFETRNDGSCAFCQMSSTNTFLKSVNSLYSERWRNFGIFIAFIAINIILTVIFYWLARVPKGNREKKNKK

Candida albicans [10] = assay: Candida growth reduction in fluconazole presence – CaCi-2 strain, Alamar Blue, dry powder, set 2, antifungal resistance reversal project, dose response (AID 488930); type: functional, organism-based
Candida albicans [11] = assay: C. albicans growth inhibition with fluconazole – CaCi-2 strain, Alamar Blue, dry powder, set 4, dose response (AID 488943); type: functional, organism-based
Candida albicans [12] = assay: antifungal activity against resistant Candida strain – CaCi-8, fluconazole, Alamar Blue, dry powder, dose response (AID 488807); type: functional, organism-based
Candida albicans [13] = assay: resistant Candida growth with fluconazole co-treatment – CaCi-8 strain, Alamar Blue, dry powder, set 2, dose response (AID 488909); type: functional, organism-based

SMILES: N#CC(c1ccccc1)c1cccc(Cl)n1 (centres undefined)
- AC50 [1]: 1.1 µM (active)
- AC50 (HeLa): > 380 µM (inactive)

SMILES: CCC(=O)Nc1cccc(-c2nnc(SCC(=O)NCc3ccco3)n2C)c1
- IC50 [2]: 1.07 µM (active)
- IC50 [3]: 5.36 µM (active)
- IC50 [4]: 4.37 µM (active)
- IC50 [5]: 0.695 µM (active)
- IC50 [6]: 1.5 µM (active)
- IC50 [7]: 1.93 µM (active)

SMILES: O=C1CN(C(=O)c2ccc(F)c(S(=O)(=O)N3CCOCC3)c2)c2ccccc2N1
- AC50 [8]: 48.3 µM (active)

SMILES: COc1ccc(-c2sc3cc4c(cc3c2-c2ccc(OCCN3CCCCC3)cc2)OCO4)cc1
- EC50 [9]: 0.062 µM (active)

SMILES: O=C(c1ccc(Cl)cc1)N1CCN(c2ccccn2)CC1
- AC50 (Candida albicans [10]): 12 µM (active)
- AC50 (Candida albicans [11]): 24.5 µM (active)
- AC50 (Candida albicans [12]): 0.64 µM (active)
- AC50 (Candida albicans [13]): 28.1 µM (active)

Source: ChEMBL document CHEMBL1201862, “PubChem BioAssay data set” (2004)
